Assay results as given in ChEMBL document CHEMBL5390315, “Targeted Protein Degradation of Histone Deacetylases by Hydrophobically Tagged Inhibitors” (ACS Med Chem Lett, 2023).
Active and inactive are the calls of the source. The rule behind the calls is not given here.

Legend:
MM1.S [1] = test: Antiproliferative activity against human MM.1S cells assessed as inhibition of cell growth at upto 100 uM incubated for 72 hrs by microplate photometer analysis; type: functional, cell-based
Histone deacetylase = test: Inhibition of human recombinant HDAC in human MM.1S cells using Boc-Lys(Epsilon-Ac)-AMC as substrate preincubated for 18 hrs followed by substrate addition and measured after 3 hrs by microplate reader analysis; type: cell-based; conditions: mm1.s
MM1.S [2] = test: cells; type: functional, cell-based; conditions: Homo sapiens, 72 h
Description: Antiproliferative activity against human MM.1S cells assessed as inhibition of cell growth incubated for 72 hrs by microplate photometer analysis

Histone deacetylase 1 [3] = target: T1, Histone deacetylase 1 (Homo sapiens, UniProt Q13547); test: Inhibition of C-terminal 6His tagged human recombinant full length HDAC1 (1 to 482 residues) using Z- Lys(Ac)-AMC as fluorogenic substrate incubated for 90 mins followed by trypsin addition and measured after 30 min by microplate reader analysis
Histone deacetylase 2 [4] = target: T2, Histone deacetylase 2 (Homo sapiens, UniProt Q92769)
Description: Inhibition of C-terminal flag tagged human recombinant full length HDAC2 (1 to 488 residues) using Z- Lys(Ac)-AMC as fluorogenic substrate incubated for 90 mins followed by trypsin addition and measured after 30 min by microplate reader analysis

[5] = target: T3, Protein deacetylase HDAC6 (Homo sapiens, UniProt Q9UBN7); test: Inhibition of C-terminal GST tagged human recombinant full length HDAC6 (1 to 1215 residues) using Z- Lys(Ac)-AMC as fluorogenic substrate incubated for 90 mins followed by trypsin addition and measured after 30 min by microplate reader analysis
T3 sequence (Q9UBN7 whole entry): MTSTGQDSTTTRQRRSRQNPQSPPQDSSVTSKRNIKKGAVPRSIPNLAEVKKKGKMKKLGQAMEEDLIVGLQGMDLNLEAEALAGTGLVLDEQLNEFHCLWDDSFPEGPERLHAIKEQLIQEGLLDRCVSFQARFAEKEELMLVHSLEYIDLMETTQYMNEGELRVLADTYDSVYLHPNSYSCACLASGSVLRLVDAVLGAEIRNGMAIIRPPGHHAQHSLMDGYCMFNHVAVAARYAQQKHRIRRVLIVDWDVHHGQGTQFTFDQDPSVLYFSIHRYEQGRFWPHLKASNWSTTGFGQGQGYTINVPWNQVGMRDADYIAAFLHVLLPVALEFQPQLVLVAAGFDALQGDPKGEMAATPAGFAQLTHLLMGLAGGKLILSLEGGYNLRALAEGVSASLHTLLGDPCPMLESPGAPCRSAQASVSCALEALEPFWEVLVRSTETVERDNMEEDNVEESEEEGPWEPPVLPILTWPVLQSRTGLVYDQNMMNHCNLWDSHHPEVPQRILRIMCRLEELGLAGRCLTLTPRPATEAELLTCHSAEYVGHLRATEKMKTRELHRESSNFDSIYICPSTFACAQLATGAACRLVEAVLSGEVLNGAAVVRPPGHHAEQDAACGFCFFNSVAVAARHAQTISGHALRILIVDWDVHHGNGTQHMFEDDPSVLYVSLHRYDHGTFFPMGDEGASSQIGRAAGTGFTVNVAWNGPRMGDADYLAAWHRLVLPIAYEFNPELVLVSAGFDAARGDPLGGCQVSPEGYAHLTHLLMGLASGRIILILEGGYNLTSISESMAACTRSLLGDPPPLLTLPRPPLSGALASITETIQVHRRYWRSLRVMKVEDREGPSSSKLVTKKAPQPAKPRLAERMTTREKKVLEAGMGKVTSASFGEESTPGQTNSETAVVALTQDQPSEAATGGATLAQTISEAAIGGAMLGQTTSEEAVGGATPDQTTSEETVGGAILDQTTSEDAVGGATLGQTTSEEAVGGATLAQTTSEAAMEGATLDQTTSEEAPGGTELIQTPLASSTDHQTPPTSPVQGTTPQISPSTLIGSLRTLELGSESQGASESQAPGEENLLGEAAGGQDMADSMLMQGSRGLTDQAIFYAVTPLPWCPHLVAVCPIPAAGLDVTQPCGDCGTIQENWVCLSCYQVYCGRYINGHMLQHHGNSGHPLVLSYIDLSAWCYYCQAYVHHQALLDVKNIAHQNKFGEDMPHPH

Histone deacetylase 1 [6] = target: T1, Histone deacetylase 1; test: Induction of HDAC1 degradation in human MM1.S cells at 20 uM incubated for 24 hrs by immunoblot analysis; type: cell-based
Histone deacetylase 2 [7] = target: T2, Histone deacetylase 2; test: Induction of HDAC2 degradation in human MM1.S cells at 20 uM incubated for 24 hrs by immunoblot analysis; type: cell-based
[8] = target: T4, Protein deacetylase HDAC6 (Homo sapiens) (UniProt Q9UBN7); test: Induction of HDAC6 degradation in human MM1.S cells at 20 uM incubated for 24 hrs by immunoblot analysis; type: cell-based
T4 sequence (whole entry): T3 sequence (Q9UBN7 whole entry)

[9] = target: Histone deacetylase 4 (Homo sapiens) (UniProt P56524); test: Inhibition of N-terminal GST/C-terminal His-tagged human recombinant HDAC4 (627 to 1084 residues) expressed in baculovirus expression system using Boc-Lys(Tfa)-AMC as fluorogenic substrate at 10 uM incubated for 90 min followed by trypsin addition and measured after 30 min by microplate reader analysis; conditions: time 120.0 min
[10] = target: Histone deacetylase 4 (Homo sapiens) (UniProt P56524); test: Induction of HDAC4 degradation in human MM1.S cells at 20 uM incubated for 24 hrs by immunoblot analysis; type: cell-based
MM1.S [11] = test: Induction of apoptosis in human MM1.S cells assessed as early apoptosis at 20 uM incubated for 48 hrs by Annexin V-FITC/PI staining based flow cytometry; type: functional, cell-based
MM1.S [12] = test: Induction of apoptosis in human MM1.S cells assessed as late apoptosis at 20 uM incubated for 48 hrs by Annexin V-FITC/PI staining based flow cytometry; type: functional, cell-based
Histone deacetylase 1 [13] = target: T1, Histone deacetylase 1; test: Induction of HDAC1 degradation in human MM1.S cells incubated for 24 hrs by immunoblot analysis; type: cell-based
Histone deacetylase 1 [14] = target: T1, Histone deacetylase 1; test: Induction of HDAC1 degradation in human MM1.S cells at 20 uM incubated for 24 hrs in the presence of MG132 by immunoblot analysis; type: cell-based

T2 sequence (Q92769 whole entry, the tested form may be a part): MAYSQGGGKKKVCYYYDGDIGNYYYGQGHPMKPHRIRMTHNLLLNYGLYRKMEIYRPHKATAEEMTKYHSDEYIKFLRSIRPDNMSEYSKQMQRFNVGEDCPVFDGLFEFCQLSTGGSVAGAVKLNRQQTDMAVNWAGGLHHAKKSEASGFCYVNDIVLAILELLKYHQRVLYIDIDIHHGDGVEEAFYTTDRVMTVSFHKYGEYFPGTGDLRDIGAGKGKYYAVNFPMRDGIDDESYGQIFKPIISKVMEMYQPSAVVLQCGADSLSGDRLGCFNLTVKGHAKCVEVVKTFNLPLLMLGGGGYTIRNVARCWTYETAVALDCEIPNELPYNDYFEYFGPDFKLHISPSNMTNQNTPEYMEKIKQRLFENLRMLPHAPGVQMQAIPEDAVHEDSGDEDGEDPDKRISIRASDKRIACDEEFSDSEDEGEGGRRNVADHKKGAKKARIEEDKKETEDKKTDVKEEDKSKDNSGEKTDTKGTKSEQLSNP
T1 sequence (Q13547 whole entry, the tested form may be a part): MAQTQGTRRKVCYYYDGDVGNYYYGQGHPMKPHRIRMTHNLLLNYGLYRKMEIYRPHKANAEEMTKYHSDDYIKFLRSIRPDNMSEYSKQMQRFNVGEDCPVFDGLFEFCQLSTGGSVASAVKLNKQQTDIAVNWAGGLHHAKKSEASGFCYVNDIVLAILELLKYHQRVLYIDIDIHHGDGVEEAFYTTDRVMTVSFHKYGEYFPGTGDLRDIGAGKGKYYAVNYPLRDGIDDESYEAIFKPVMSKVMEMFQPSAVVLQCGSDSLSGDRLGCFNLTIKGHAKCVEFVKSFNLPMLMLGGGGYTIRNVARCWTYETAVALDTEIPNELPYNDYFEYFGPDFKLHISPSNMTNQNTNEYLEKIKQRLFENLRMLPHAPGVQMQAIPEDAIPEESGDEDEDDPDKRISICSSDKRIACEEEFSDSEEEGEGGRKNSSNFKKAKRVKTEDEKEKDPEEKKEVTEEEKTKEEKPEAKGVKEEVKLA
Chain of Histone deacetylase 4 (Homo sapiens) (P56524 whole entry, the tested form may be a part): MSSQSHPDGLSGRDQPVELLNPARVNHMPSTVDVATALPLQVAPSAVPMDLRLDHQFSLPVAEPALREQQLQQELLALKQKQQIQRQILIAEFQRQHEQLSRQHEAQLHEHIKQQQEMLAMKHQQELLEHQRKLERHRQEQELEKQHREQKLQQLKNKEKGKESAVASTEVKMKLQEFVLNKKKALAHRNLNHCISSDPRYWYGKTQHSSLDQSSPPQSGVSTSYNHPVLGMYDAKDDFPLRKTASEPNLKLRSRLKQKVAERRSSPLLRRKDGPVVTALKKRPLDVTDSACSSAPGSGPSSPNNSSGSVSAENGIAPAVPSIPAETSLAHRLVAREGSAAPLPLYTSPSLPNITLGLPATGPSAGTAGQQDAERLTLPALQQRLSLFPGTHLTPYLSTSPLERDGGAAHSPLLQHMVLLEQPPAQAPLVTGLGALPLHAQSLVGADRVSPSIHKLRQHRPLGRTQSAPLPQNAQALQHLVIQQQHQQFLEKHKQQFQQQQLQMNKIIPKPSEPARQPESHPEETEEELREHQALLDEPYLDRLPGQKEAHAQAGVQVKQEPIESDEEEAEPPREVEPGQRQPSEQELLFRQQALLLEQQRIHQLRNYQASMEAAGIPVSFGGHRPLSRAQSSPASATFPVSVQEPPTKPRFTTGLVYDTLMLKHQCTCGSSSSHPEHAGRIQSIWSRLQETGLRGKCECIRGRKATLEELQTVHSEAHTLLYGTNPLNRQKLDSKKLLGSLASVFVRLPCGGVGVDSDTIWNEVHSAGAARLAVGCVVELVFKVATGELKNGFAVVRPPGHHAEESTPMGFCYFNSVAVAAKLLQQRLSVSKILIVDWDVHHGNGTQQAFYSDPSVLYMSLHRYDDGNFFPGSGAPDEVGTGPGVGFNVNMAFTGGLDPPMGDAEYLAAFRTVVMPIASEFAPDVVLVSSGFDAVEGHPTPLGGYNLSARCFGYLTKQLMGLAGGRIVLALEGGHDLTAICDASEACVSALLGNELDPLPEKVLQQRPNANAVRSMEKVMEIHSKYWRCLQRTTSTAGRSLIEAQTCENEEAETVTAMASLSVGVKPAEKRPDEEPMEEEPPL

Row | Compound | Activity (MM1.S [1]) | IC50 (Histone deacetylase) [µM] | IC50 (MM1.S [2]) [µM] | IC50 (Histone deacetylase 1 [3]) [nM] | IC50 (Histone deacetylase 2 [4]) [nM] | IC50 [5] [nM] | Activity (Histone deacetylase 1 [6]) | Activity [8] | inhibition [9] | Activity [10] | Activity (MM1.S [11]) | Activity (MM1.S [12]) | Emax (Histone deacetylase 1 [13]) [%] | other results
1 | O=C(CCCCCCNC(=O)c1ccc(NC(=O)CCCCCNC(=O)CC2c3ccccc3-c3ccccc32)cc1)NO | inactive |  |  |  |  |  |  |  |  |  |  |  |  | 
2 | O=C(CCCCCCNC(=O)c1ccc(NC(=O)CC23C[C@H]4C[C@@H](C2)C[C@@H](C3)C4)cc1)NO |  | 1.12 | 3.97 | 192 | 295 | 5.2 | Active | inactive | inactive | inactive | Active | Active | 47 | Activity (Histone deacetylase 2 [7]): Active
3 | O=C(CCCCCCNC(=O)c1ccc(NC(=O)CC2c3ccccc3-c3ccccc32)cc1)NO | inactive |  |  |  |  |  |  |  |  |  |  |  |  | 
4 | O=C(CCCCCCNC(=O)c1ccc(NC(=O)CNC(=O)CC2c3ccccc3-c3ccccc32)cc1)NO |  | 0.54 | 11.6 | 86.4 | 157 | 3.3 | Active | inactive | inactive | inactive | Active | Active | 47 | 
5 | O=C(CC12C[C@H]3C[C@@H](C1)C[C@@H](C2)C3)NCCOCCOCCCCCCn1cc(COc2ccc(C(=O)NCc3ccc(C(=O)NO)cc3)cc2)nn1 | inactive |  |  |  |  |  |  |  |  |  |  |  |  | 
6 | O=C(CCCCCCNC(=O)c1ccc(NC(=O)CCCNC(=O)CC2c3ccccc3-c3ccccc32)cc1)NO |  |  | 68.1 |  |  |  |  |  |  |  |  |  |  | 
7 | O=C(CCCCCCNC(=O)c1ccc(NC(=O)CCCNC(=O)CC23C[C@H]4C[C@@H](C2)C[C@@H](C3)C4)cc1)NO |  |  | 23.8 |  |  |  |  |  |  |  |  |  |  | 
8 | O=C(CCCCCCNC(=O)c1ccc(NC(=O)CCCCCNC(=O)CC23C[C@H]4C[C@@H](C2)C[C@@H](C3)C4)cc1)NO |  |  | 22.8 |  |  |  |  |  |  |  |  |  |  | 
9 | O=C(CCCCCCNC(=O)c1ccc(-c2cn(CCCCCCOCCOCCNC(=O)CC34C[C@H]5C[C@@H](C3)C[C@@H](C4)C5)nn2)cc1)NO |  | 1.17 | 10.3 | 350 | 434 | 17.7 | Active | inactive | inactive | inactive | Active | Active | 47 | Activity (Histone deacetylase 1 [14]): inactive
10 | O=C(CC12C[C@H]3C[C@@H](C1)C[C@@H](C2)C3)NCCOCCOCCCCCCn1cc(-c2ccc(C(=O)NCc3ccc(C(=O)NO)cc3)cc2)nn1 | inactive |  |  |  |  |  |  |  |  |  |  |  |  | 
11 | O=C(CCCCCCNC(=O)c1ccc(OCc2cn(CCCCCCOCCOCCNC(=O)CC34C[C@H]5C[C@@H](C3)C[C@@H](C4)C5)nn2)cc1)NO |  |  | 48.8 |  |  |  |  |  |  |  |  |  |  | 
12 | O=C(CCCCCCNC(=O)c1ccc(NC(=O)CNC(=O)CC23C[C@H]4C[C@@H](C2)C[C@@H](C3)C4)cc1)NO |  | 0.58 | 7.23 | 133 | 246 | 5.9 | Active | inactive | inactive | inactive | Active | Active | 47 | Activity (Histone deacetylase 2 [7]): Active
